Data published in ChEMBL document CHEMBL1201862, “PubChem BioAssay data set” (2004).
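A five-concentration, 48-hour dose response in 96-well plates underlies each endpoint, interpolated linearly between surrounding concentrations. Abbreviation: GI50, concentration required for 50% inhibition of growth.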 The source made the active and inactive calls. No stated cut-off is given here; in the data, active = GI50 up to about 1.1 µM and inactive = higher.

Experiments:
Test in all cases: NCI tumour cell line growth inhibition, 48 h
RXF 631 = test system: RXF 631
LXFL 529 = test system: LXFL 529
HOP-18 = test system: HOP-18
XF498 = test system: XF498
KM-20L2 = test system: KM-20L2
M19-MEL = test system: M19-MEL
SNB-78 = test system: SNB-78
DMS-114 = test system: DMS-114

Structure (SMILES): CCOP1(=O)C=C(C)C(=C(Cl)Cl)C(C)=C1 (centres undefined)
- GI50 (RXF 631): 5.87 µM (inactive)
- GI50 (LXFL 529): 3.78 µM (inactive)
- GI50 (HOP-18): 13.8 µM (inactive)
- GI50 (XF498): 0.548 µM (active)
- GI50 (KM-20L2): 2.68 µM (inactive)
- GI50 (M19-MEL): 8.07 µM (inactive)
- GI50 (SNB-78): > 10 µM (inactive)

Structure (SMILES): CN(C)CC(/C(Cc1ccccc1)=N\NC(=O)C[n+]1ccccc1)c1ccccc1 (centres undefined)
- GI50 (RXF 631): > 100 µM (inactive)
- GI50 (LXFL 529): > 100 µM (inactive)
- GI50 (DMS-114): > 100 µM (inactive)
- GI50 (HOP-18): > 100 µM (inactive)
- GI50 (XF498): > 100 µM (inactive)
- GI50 (KM-20L2): > 100 µM (inactive)
- GI50 (M19-MEL): > 100 µM (inactive)
- GI50 (SNB-78): 53.2 µM (inactive)

Structure (SMILES): CCOC(=O)CCC(NC(=O)c1ccc(/N=C/c2nc3ccccc3nc2-c2ccccc2)cc1)C(=O)OCC (centres undefined)
- GI50 (RXF 631): > 100 µM (inactive)
- GI50 (LXFL 529): > 100 µM (inactive)
- GI50 (DMS-114): > 100 µM (inactive)
- GI50 (HOP-18): 35.4 µM (inactive)
- GI50 (XF498): > 100 µM (inactive)
- GI50 (KM-20L2): > 100 µM (inactive)
- GI50 (SNB-78): > 100 µM (inactive)

Structure (SMILES): COC1=CC(=O)NCCN1
- GI50 (RXF 631): > 100 µM (inactive)
- GI50 (LXFL 529): > 100 µM (inactive)
- GI50 (DMS-114): > 100 µM (inactive)
- GI50 (HOP-18): > 100 µM (inactive)
- GI50 (XF498): > 100 µM (inactive)
- GI50 (KM-20L2): > 100 µM (inactive)
- GI50 (M19-MEL): > 100 µM (inactive)
- GI50 (SNB-78): > 100 µM (inactive)

Structure (SMILES): CC(C)CCCC(C)[C@H]1CCC2[C@@H]3CCC4Nc5c(cnn5-c5ccccc5)C[C@]4(C)C3CC[C@@]21C (some centres undefined)
- GI50 (RXF 631): 13.1 µM (inactive)
- GI50 (LXFL 529): 24.3 µM (inactive)
- GI50 (DMS-114): 52.8 µM (inactive)
- GI50 (HOP-18): > 100 µM (inactive)
- GI50 (XF498): 15.3 µM (inactive)
- GI50 (KM-20L2): 13.1 µM (inactive)
- GI50 (M19-MEL): 26.1 µM (inactive)
- GI50 (SNB-78): 18.7 µM (inactive)

Structure (SMILES): COc1ccc2nc3cccc(C(=O)NCCN(C)C)c3nc2c1
- GI50 (RXF 631): 3.17 µM (inactive)
- GI50 (LXFL 529): 1.26 µM (inactive)
- GI50 (DMS-114): 1.29 µM (inactive)
- GI50 (HOP-18): 3.19 µM (inactive)
- GI50 (XF498): 0.292 µM (active)
- GI50 (KM-20L2): 2.2 µM (inactive)
- GI50 (M19-MEL): 1.64 µM (inactive)
- GI50 (SNB-78): 2.88 µM (inactive)

Structure (SMILES): COC(=O)c1ncc2c(=O)[nH]c3ccccc3c2c1C(=O)OC
- GI50 (RXF 631): > 100 µM (inactive)
- GI50 (LXFL 529): > 100 µM (inactive)
- GI50 (DMS-114): > 100 µM (inactive)
- GI50 (HOP-18): > 100 µM (inactive)
- GI50 (XF498): > 100 µM (inactive)
- GI50 (KM-20L2): > 100 µM (inactive)
- GI50 (M19-MEL): > 100 µM (inactive)
- GI50 (SNB-78): > 100 µM (inactive)

Structure (SMILES): CCOCN1COCN/C1=N/C#N
- GI50 (RXF 631): > 100 µM (inactive)
- GI50 (LXFL 529): > 100 µM (inactive)
- GI50 (DMS-114): 71.4 µM (inactive)
- GI50 (HOP-18): > 100 µM (inactive)
- GI50 (XF498): > 100 µM (inactive)
- GI50 (KM-20L2): > 100 µM (inactive)
- GI50 (SNB-78): > 100 µM (inactive)

Structure (SMILES): N#Cc1c(C(N)=O)ncn1Cc1ccccc1
- GI50 (RXF 631): > 100 µM (inactive)
- GI50 (LXFL 529): > 100 µM (inactive)
- GI50 (DMS-114): > 100 µM (inactive)
- GI50 (HOP-18): > 100 µM (inactive)
- GI50 (XF498): > 100 µM (inactive)
- GI50 (KM-20L2): > 100 µM (inactive)
- GI50 (M19-MEL): > 100 µM (inactive)
- GI50 (SNB-78): > 100 µM (inactive)
